Legend:
Stat3 = Stat3 (Homo sapiens, UniProt P40763); experiment: Stat3/pY-peptide binding assay (SPR, BIAcore); conditions: recombinant Stat3 500 nM; immobilized EGFR Y1068 phosphododecapeptide; 25°C; read-out: SPR IC50, inhibition of Stat3 binding to pY peptide ligand
Experimental: A control (Stat3 with DMSO but without compound) was run at the beginning and the end of each cycle (40 sample injections) to ensure that the integrity of the sensor chip was maintained throughout the cycle run. The average of the two controls was normalized to 100% and used to evaluate the effect of each compound on Stat3 binding. Responses were normalized by dividing the value at 2 min by the response obtained in the absence of compounds at 2 min and multiplying by 100.

[1] = tested on: IL-6-mediated phosphorylation of Stat3; experiment: Immunoblot of IL-6-mediated Stat3 phosphorylation in HepG2 cells; format: cell-based; conditions: Homo sapiens, compound 60 min, then IL-6 30 ng/ml 30 min, read-out: pStat3 IC50, inhibition of IL-6-mediated Stat3 phosphorylation
Experimental: The human hepatocellular carcinoma cell line (HepG2) was grown in 6-well plates under standard conditions. Cells were pretreated with compounds (0, 1, 3, 10, 30, 100 and 300 µM) for 1 hour then stimulated under optimal conditions with either interleukin-6 (IL-6; 30 ng/ml for 30 min) to activate Stat3 or interferon gamma (IFN-γ; 30 ng/ml for 30 min) to activate Stat1 [28]. Cultures were then harvested and proteins extracted using high-salt buffer, as described. Briefly, extracts were mixed with 2× sodium dodecyl sulfate (SDS) sample buffer (125 mM Tris-HCL pH 6.8; 4% SDS; 20% glycerol; 10% 2-mercaptoethanol) at a 1∶1 ratio and heated for 5 minutes at 100°C. Proteins (20 µg) were separated by 7.5% SDS-PAGE and transferred to polyvinylidene fluoride (PVDF) membrane (Millipore, Waltham, MA) and immunoblotted. Prestained molecular weight markers (BioRad; Hercules, CA) were included in each gel. Membranes were probed serially with antibody against Stat1 pY701 or Stat3 pY705 followed by antibody against Stat1 or Stat3 (Transduction labs, Lexington, KY) then antibody against β–actin (Abcam, Cambridge, MA). Membranes were stripped between antibody probing using Restore™ Western Blot Stripping Buffer (Thermo Fisher Scientific Inc., Waltham, MA) per the manufacturer's instructions. Horseradish peroxidase-conjugated goat-anti-mouse IgG was used as the secondary antibody (Invitrogen Carlsbad, CA) and the membranes were developed with enhanced chemiluminescence (ECL) detection system (Amersham Life Sciences Inc.; Arlington Heights, IL.).
Figure 2 Effect of compounds on ligand-mediated Stat3 and Stat1 phosphorylation. […] Cells were then stimulated with IL-6 (30 ng/ml) for 30 min. Protein extracts of cells were separated by SDS-PAGE, blotted and developed serially with antibodies to pStat3, total Stat3 and β-actin. Blots were stripped between each antibody probing. Band intensities were quantified by densitometry. […] The best-fitting curve was determined using 4-Parameter Logistic Model/Dose Response/XLfit 4.2, IDBS software and was used to calculate the IC50 value (Table 1). […]

[2] = tested on: cell lines MDA-MB-453 and MCF7; experiment: Apoptosis assay, summary over the cell lines without constitutive Stat3 activity; format: cell-based; conditions: Homo sapiens, concentrations up to 300 µM, read-out: EC50 apoptosis induction, MDA-MB-453 and MCF7
Experimental: Human breast carcinoma cell lines MDA-MB-468, MDA-MB-231, MBA-MD-435 and MCF7 were kindly provided by Dr. Powel H. Brown (Breast Cancer Center, Baylor College of Medicine). Breast cancer cell line, MDA-MB-453 was kindly provided by Dr. Shou Jiang (Breast Cancer Center, Baylor College of Medicine). All cell lines were grown in DMEM medium supplemented with 10% fetal bovine serum (FBS), 25,000 units penicillin G, 25,000 µg streptomycin, and 131.4 mg L-Glutamine and cultured in the incubator under the condition of 95% air, 5% CO2 at 37°C [33]. Cells were seeded at 2,500 cells/cm^2 into 12-well plates. At 80% confluency, cells were washed with PBS and supplemented with fresh medium containing compound or the topoisomerase I-inhibitor, camptothecin, at 0, 0.1, 0.3, 1, 3, 10, 30, 100, 300 µM. At 24 hours, treatment was terminated by removing the medium from each well. Cells were lysed with cell lysis buffer (600 µl for 30 minutes at 25°C). Cell lysate (200 µl) was centrifuged at 200 g for 10 minutes and 20 µl of each supernatant was assayed for nucleosomes using the Cell Death Detection ELISA (Roche Applied Science) as described by the manufacturer. The percent maximum nucleosome level was calculated by dividing the nucleosome level by the maximum nucleosome level achieved in the assay and multiplying by 100.
MDA-MB-468 (panel A), MDA-MB-231 (panel B), MDA-MB-435 (panel C), MCF7 (panel D) and MDA-MB-453 (panel E) were seeded in 12-well plates, grown overnight then treated with the indicated compound for 24 hr. Cells were centrifuged and the supernatants assayed for nucleosome levels by ELISA. The percent maximum nucleosome level was calculated (nucleosome level ÷ maximum nucleosome level achieved in the assay ×100) and plotted as a function of the log compound concentration. The best-fitting curve was determined using 4-ParameterLogistic Model/Dose Response One Site/XLfit 4.2, IDBS software and was used to determine the EC50 value (Table 3).

Stat3, sequence (P40763 whole entry, species assumed): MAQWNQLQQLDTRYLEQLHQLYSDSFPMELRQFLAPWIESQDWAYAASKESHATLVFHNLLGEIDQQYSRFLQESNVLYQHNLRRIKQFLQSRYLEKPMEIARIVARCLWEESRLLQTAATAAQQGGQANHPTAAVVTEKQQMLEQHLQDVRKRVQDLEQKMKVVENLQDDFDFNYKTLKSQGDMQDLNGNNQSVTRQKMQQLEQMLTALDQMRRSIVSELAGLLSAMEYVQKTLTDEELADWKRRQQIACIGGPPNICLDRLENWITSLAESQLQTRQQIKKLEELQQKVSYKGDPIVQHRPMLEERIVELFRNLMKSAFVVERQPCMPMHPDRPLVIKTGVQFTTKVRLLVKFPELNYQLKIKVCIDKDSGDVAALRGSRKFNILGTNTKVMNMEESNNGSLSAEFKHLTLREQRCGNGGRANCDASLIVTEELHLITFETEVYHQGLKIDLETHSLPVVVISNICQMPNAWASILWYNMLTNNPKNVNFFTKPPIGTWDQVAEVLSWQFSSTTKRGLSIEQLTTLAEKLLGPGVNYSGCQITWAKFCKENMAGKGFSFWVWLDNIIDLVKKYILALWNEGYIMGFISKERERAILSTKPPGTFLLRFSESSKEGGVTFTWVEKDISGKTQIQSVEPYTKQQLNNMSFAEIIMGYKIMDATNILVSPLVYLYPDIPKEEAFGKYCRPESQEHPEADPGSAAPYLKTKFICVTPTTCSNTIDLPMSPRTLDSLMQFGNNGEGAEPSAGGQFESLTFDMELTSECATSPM

O=C(O)c1ccc(C=CC(=O)c2ccc3c(c2)OCCO3)cc1 [Cpd3, 4-[3-(2,3-dihydro-1,4-benzodioxin-6-yl)-3-oxo-1-propen-1-yl]benzoic acid]
IC50 (Stat3): 447 µM | IC50 [1]: 91 µM | EC50 [2]: > 300 µM
